Article PMC5510229, “BCAT1 controls metabolic reprogramming in activated human macrophages and is associated with inflammatory diseases” (Nature Communications, 2017)

Target: T1, recombinant human BCAT1 (Homo sapiens, UniProt P54687)
T1 construct: purchased Abcam
T1 sequence (P54687 1-386): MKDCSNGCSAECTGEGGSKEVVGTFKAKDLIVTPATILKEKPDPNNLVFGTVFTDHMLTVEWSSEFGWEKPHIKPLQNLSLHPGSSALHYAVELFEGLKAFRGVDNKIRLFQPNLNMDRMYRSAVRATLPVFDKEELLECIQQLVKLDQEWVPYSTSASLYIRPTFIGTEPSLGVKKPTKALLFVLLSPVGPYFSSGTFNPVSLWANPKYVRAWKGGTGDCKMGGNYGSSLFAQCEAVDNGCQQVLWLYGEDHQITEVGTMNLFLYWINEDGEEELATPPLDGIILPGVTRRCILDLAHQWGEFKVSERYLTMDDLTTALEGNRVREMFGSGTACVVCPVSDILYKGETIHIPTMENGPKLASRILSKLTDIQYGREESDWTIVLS
Test: BCAT1 aminotransferase enzymatic assay (continuous fluorometric)
Assay type: biochemical
Details: 100 ng recombinant protein
Source text: To gain more insights into the role of BCAT enzymes in macrophages, we set out to investigate these in human monocyte-derived macrophages (hMDMs) by subjecting these cells to RNA-sequencing (Fig. 1a). […] To examine the role of BCAT1 in macrophage metabolism and inflammatory diseases, we identified a novel BCAT1 inhibitor, ERG240, using molecular modelling approaches based on the X-ray crystal structures of BCAT1 (ref. [22]). ERG240 is a water-soluble structural analogue of leucine (Fig. 1b). Its ability to suppress the BCAT1 aminotransferase activity was measured in a continuous fluorometric assay (ref. [23] and see Supplementary Methods). […]
Figure 1 BCAT1 expression and inhibition in human macrophages. […] (d) Relative expression of IRG1, HIF1A and IL1B measured by qRT-PCR in control, ERG240-treated (20 mM, 3 h), LPS treated (100 ng ml^−1, 3 h), and LPS+ERG240 treated (LPS, 100 ng ml^−1; ERG240, 20 mM for 3 h) hMDMs. ns, non-significant. […]
Finall y, th e libraries were size selected using AM Pure XP Beads (Beckman Coulter) purified and their quality was checked using Agilent 2100 Bioanalyzer. Samples were randomized to avoid batch effects and multiplexed libraries wer e run on a single lan e (6 samples/lane) of the HiSeq 2500 platform (Illumina) to generate 100bp paired-end reads. […]
respectivel y. RNA-seq reads were aligned to human (hg19) or mouse (mm10) reference genomes using tophat2. […]

`CC(=O)C(C)CCC(=O)O` (stereo not shown) [ERG240] was tested, and the IC50 was 0.1 to 1 nM.
